From US11707516B2, “Method for producing artificial recombinant rotavirus” (Osaka University, priority 2016, dated 2023)

System: luciferase-expressing artificial recombinant rotavirus
Assay: Screening test for anti-rotavirus drug using luciferase-expressing rotavirus in CV-1 cells (luminescence)
Format: cell-based, simian rotavirus
Description: CV-1 cells were seeded on 96-well culture plates at 1×10^5 cells/well on the previous day of infection. The CV-1 cells were infected with wild-type SA11 or the luciferase-expressing artificial recombinant rotavirus produced in Example 4 at an MOI of 0.001. After viral adsorption at 37° C. for 1 hour, the culture supernatant was removed, and DMEM (without FBS and with 0.5 μg/mL trypsin) containing 0, 1, 5, 10, 50, 100 or 200 μM ribavirin (Sigma-Aldrich) was added. Incubation was performed at 37° C. for 14 hours. After that, the substrate stock solution of Nano-Glo Luciferase Assay System (trade name, Promega) was added to the culture medium, and luminescence was detected with an in vivo imaging system (IVIS Spectrum, manufactured by Xenogen).

NC(=O)c1ncn([C@@H]2O[C@H](CO)[C@@H](O)[C@H]2O)n1 [ribavirin]
luminescence intensity (viral proliferation inhibitory effect) (MOI of 0.001, 0, 1, 5, 10, 50, 100 or 200 μM ribavirin, 14 hours): decreased in a ribavirin concentration-dependent manner | ribavirin concentration at which no luminescence was observed (MOI of 0.001, 14 hours): ≥ 50 µM
